Experimental data published in patent US10975077B2 (Novira Therapeutics, Inc., priority 2016, dated 2021).

Tested on: HBV (encapsidated HBV DNA, HepG2.2.15 cells)
Assay: HBV replication inhibition assay, BDNA assay in HepG2.2.15 cells
Assay type: cell-based
Summary of the method: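 HepG2.2.15 cells (stably integrated HBV, 40,000/well) treated with serially diluted compound in 0.5% DMSO for 6 days, medium and compound refreshed at day 3. DNase-treated supernatant lysed with proteinase K; encapsidated HBV DNA quantified by bDNA, percent inhibition versus DMSO controls, EC50 by nonlinear fit.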

[1] = Hepatitis B virus, HepG2.2.15, Activity in BDNA-assay

| SMILES | EC50 [1] | EC50 (Activity in BDNA-assay) |
| --- | --- | --- |
| CN1CC(N2CCC(F)(F)C2)Cn2nc3c(c2C1=O)CN(C(=O)Nc1ccc(F)c(Cl)c1)CC3 (stereo not shown) [Compound 054, N-(3-chloro-4-fluorophenyl)-8-(3,3-difluoropyrrolidin-1-yl)-10-methyl-11-oxo-1,3,4,7,8,9,10,11-octahydro-2H-pyrido[4′,3′:3,4]pyrazolo[1,5-a][1,4]diazepine-2-carboxamide] | 100 to 500 nM |  |
| CN1CC(CN)Cn2nc3c(c2C1=O)CN(C(=O)Nc1ccc(F)c(C#N)c1)CC3 (stereo not shown) [Compound 095, 8-(aminomethyl)-N-(3-cyano-4-fluorophenyl)-10-methyl-11-oxo-1,3,4,7,8,9,10,11-octahydro-2H-pyrido[4′,3′:3,4]pyrazolo[1,5-a][1,4]diazepine-2-carboxamide] | 1 to 100 nM |  |
| CN1CC(C(F)F)Cn2nc3c(c2C1=O)CN(C(=O)Nc1ccc(F)c(Cl)c1)CC3 (stereo not shown) [Compound 037, N-(3-chloro-4-fluorophenyl)-8-(difluoromethyl)-10-methyl-11-oxo-1,3,4,7,8,9,10,11-octahydro-2H-pyrido[4′,3′:3,4]pyrazolo[1,5-a][1,4]diazepine-2-carboxamide] | 1 to 100 nM |  |
| C[C@@H]1Cc2nn3c(c2CN1C(=O)Nc1ccc(F)c(C#N)c1)C(=O)N(C)CC(F)C3 (single isomer, unassigned) [Compound 137_D2, (3R,8S*)-N-(3-Cyano-4-fluorophenyl)-8-fluoro-3,10-dimethyl-11-oxo-1,3,4,7,8,9,10,11-octahydro-2H-pyrido[4′,3′:3,4]pyrazolo[1,5-a][1,4]diazepine-2-carboxamide] |  | 1 to 100 nM |
| CN1CC(CNCC(F)F)Cn2nc3c(c2C1=O)CN(C(=O)Nc1cc(Br)c(F)cc1F)CC3 (single isomer, unassigned) [Compound 125_E2, (S*)—N-(5-bromo-2,4-difluorophenyl)-8-(((2,2-difluoroethyl)amino)methyl)-10-methyl-11-oxo-1,3,4,7,8,9,10,11-octahydro-2H-pyrido[4′,3′:3,4]pyrazolo[1,5-a][1,4]diazepine-2-carboxamide] |  | 1 to 100 nM |
| C[C@@H]1Cc2nn3c(c2CN1C(=O)Nc1ccc(F)c(C#N)c1)C(=O)N(C)CC(F)(F)C3 [Compound 136, (R)—N-(3-cyano-4-fluorophenyl)-8,8-difluoro-3,10-dimethyl-11-oxo-1,3,4,7,8,9,10,11-octahydro-2H-pyrido[4′,3′:3,4]pyrazolo[1,5-a][1,4]diazepine-2-carboxamide] | 1 to 100 nM |  |
| COC(=O)c1cn2nc3c(c2c(=O)n1C)CN(C(=O)Nc1ccc(F)c(Cl)c1)CC3 [Compound 040, methyl 2-((3-chloro-4-fluorophenyl)carbamoyl)-9-methyl-10-oxo-1,2,3,4,9,10-hexahydropyrido[4′,3′:3,4]pyrazolo[1,5-a]pyrazine-8-carboxylate] | 100 to 500 nM |  |
| CCOC1CN(C)C(=O)c2c3c(nn2C1)CCN(C(=O)Nc1ccc(F)c(Cl)c1)C3 (stereo not shown) [Compound 017, N-(3-chloro-4-fluorophenyl)-8-ethoxy-10-methyl-11-oxo-1,3,4,7,8,9,10,11-octahydro-2H-pyrido[4′,3′:3,4]pyrazolo[1,5-a][1,4]diazepine-2-carboxamide] | 1 to 100 nM |  |
| C[C@@H]1Cc2nn3c(c2CN1C(=O)Nc1cc(Br)c(F)cc1F)C(=O)N(C)CC(CO)C3 (single isomer, unassigned) [Compound 085_D1, (3R,8 S*)—N-(5-bromo-2,4-difluorophenyl)-8-(hydroxymethyl)-3,10-dimethyl-11-oxo-1,3,4,7,8,9,10,11-octahydro-2H-pyrido[4′,3′:3,4]pyrazolo[1,5-a][1,4]diazepine-2-carboxamide] | 1 to 100 nM |  |
| CN1CC(CN2CCCC2)Cn2nc3c(c2C1=O)CN(C(=O)Nc1ccc(F)c(Cl)c1)CC3 (stereo not shown) [Compound 069, N-(3-chloro-4-fluorophenyl)-10-methyl-11-oxo-8-(pyrrolidin-1-ylmethyl)-1,3,4,7,8,9,10,11-octahydro-2H-pyrido[4′,3′:3,4]pyrazolo[1,5-a][1,4]diazepine-2-carboxamide] | 1 to 100 nM |  |
| CC1CN(C)C(=O)c2c3c(nn2C1)C[C@@H](C)N(C(=O)Nc1ccc(F)c(Cl)c1)C3 (single isomer, unassigned) [Compound 080_D2, (3R,8R*)—N-(3-chloro-4-fluorophenyl)-3,8,10-trimethyl-11-oxo-3,4,8,9,10,11-hexahydro-1H-pyrido[4′,3′:3,4]pyrazolo[1,5-a][1,4]diazepine-2 (7H)-carboxamide] |  | 1 to 100 nM |
| CN1CC(CO)(CC(F)F)Cn2nc3c(c2C1=O)CN(C(=O)Nc1ccc(F)c(Cl)c1)CC3 (stereo not shown) [Compound 091, N-(3-chloro-4-fluorophenyl)-8-(2,2-difluoroethyl)-8-(hydroxmethyl)-10-methyl-11-oxo-1,3,4,7,8,9,10,11-octahydro-2H-pyrido[4′,3′:3,4]pyrazolo[1,5-a][1,4]diazepine-2-carboxamide] | 100 to 500 nM |  |
| CN1CC(CN)Cn2nc3c(c2C1=O)CN(C(=O)Nc1ccc(F)c(Cl)c1)CC3 (stereo not shown) [Compound 070, 8-(aminomethyl)-N-(3-chloro-4-fluorophenyl)-10-methyl-11-oxo-1,3,4,7,8,9,10,11-octahydro-2H-pyrido[4′,3′:3,4]pyrazolo[1,5-a][1,4]diazepine-2-carboxamide] | 1 to 100 nM |  |
| CN1CC(CNCC(F)(F)F)Cn2nc3c(c2C1=O)CN(C(=O)Nc1ccc(F)c(C(F)(F)F)c1)CC3 (stereo not shown) [Compound 121, N-(4-fluoro-3-(trifluoromethyl)phenyl)-10-methyl-11-oxo-8-(((2,2,2-trifluoroethyl)amino)methyl)-1,3,4,7,8,9,10,11-octahydro-2H-pyrido[4′,3′:3,4]pyrazolo[1,5-a][1,4]diazepine-2-carboxamide] | 1 to 100 nM |  |
| CN1CC(C(O)CC(F)F)Cn2nc3c(c2C1=O)CN(C(=O)Nc1ccc(F)c(Cl)c1)CC3 (stereo not shown) [Compound 116, N-(3-chloro-4-fluoro-phenyl)-8-(3,3-difluoro-1-hydroxy-propyl)-10-methyl-1-oxo-1,3,4,7,8,9-hexahydropyrido[2,3]pyrazolo[2,4-b][1,4]diazepine-2-carboxamide] | 1 to 100 nM |  |
| CN1CC(CNCC(F)F)Cn2nc3c(c2C1=O)CN(C(=O)Nc1ccc(F)c(C(F)(F)F)c1)CC3 (stereo not shown) [Compound 119, 8-(((2,2-difluoroethyl)amino)methyl)-N-(4-fluoro-3-(trifluoromethyl)phenyl)-10-methyl-11-oxo-1,3,4,7,8,9,10,11-octahydro-2H-pyrido[4′,3′:3,4]pyrazolo[1,5-a][1,4] diazepine-2-carboxamide] | 1 to 100 nM |  |
| C[C@@H]1Cc2nn3c(c2CN1C(=O)Nc1cc(C(F)(F)F)c(F)cc1F)C(=O)N(C)CC(CO)C3 (single isomer, unassigned) [Compound 082_D1, (3R,8S*)—N-(2,4-difluoro-5-(trifluoromethyl)phenyl)-8-(hydroxmethyl)-3,10-dimethyl-11-oxo-1,3,4,7,8,9,10,11-octahydro-2H-pyrido[4′,3′:3,4]pyrazolo[1,5-a][1,4]diazepine-2-carboxamide] |  | 1 to 100 nM |
| CCC(O)C1CN(C)C(=O)c2c3c(nn2C1)CC(C)N(C(=O)Nc1ccc(F)c(C#N)c1)C3 [Compound 108_D1, (3R,8S*)—N-(3-cyano-4-fluorophenyl)-8-((R)-1-hydroxypropyl)-3,10-dimethyl-11-oxo-1,3,4,7,8,9,10,11-octahydro-2H-pyrido[4′,3′:3,4]pyrazolo[1,5-a][1,4]diazepine-2-carboxamide] |  | 1 to 100 nM |
| C[C@@H]1Cc2nn3c(c2CN1C(=O)Nc1ccc(F)c(C(F)(F)F)c1)C(=O)N(CC(F)F)CCC3 [Compound 073, (R)-10-(2,2-difluoroethyl)-N-(4-fluoro-3-(trifluoromethyl)phenyl)-3-methyl-11-oxo-1,3,4,7,8,9,10,11-octahydro-2H-pyrido[4′,3′:3,4]pyrazolo[1,5-a][1,4]diazepine-2-carboxamide] | 1 to 100 nM |  |
| CN1CC(CN2CCC(F)(F)C2)Cn2nc3c(c2C1=O)CN(C(=O)Nc1ccc(F)c(C(F)(F)F)c1)CC3 (stereo not shown) [Compound 068, 8-((3,3-difluoropyrrolidin-1-yl)methyl)-N-(4-fluoro-3-(trifluoromethyl)phenyl)-10-methyl-11-oxo-1,3,4,7,8,9,10,11-octahydro-2H-pyrido[4′,3′:3,4]pyrazolo[1,5-a][1,4] diazepine-2-carboxamide] | 100 to 500 nM |  |
| Cc1cc(NC(=O)N2Cc3c(nn4c3C(=O)N(CC(F)F)CCC4)C[C@H]2C)ccc1F [Compound 077, (R)-10-(2,2-difluoroethyl)-N-(4-fluoro-3-methylphenyl)-3-methyl-11-oxo-1,3,4,7,8,9,10,11-octahydro-2H-pyrido[4′,3′:3,4]pyrazolo[1,5-a][1,4]diazepine-2-carboxamide] | 1 to 100 nM |  |
| CC1CN(C)C(=O)c2c3c(nn2C1)CCN(C(=O)Nc1ccc(F)c(Cl)c1)C3 (stereo not shown) [Compound 014, N-(3-chloro-4-fluoro-phenyl)-8,10-dimethyl-11-oxo-1,3,4,7,8,9-hexahydropyrido[2,3]pyrazolo[2,4-b][1,4]diazepine-2-carboxamide] | 1 to 100 nM |  |
| CC(O)C1CN(C)C(=O)c2c3c(nn2C1)CCN(C(=O)Nc1ccc(F)c(Cl)c1)C3 (stereo not shown) [Compound 034, N-(3-chloro-4-fluorophenyl)-8-(1-hydroxyethyl)-10-methyl-11-oxo-1,3,4,7,8,9,10,11-octahydro-2H-pyrido[4′,3′:3,4]pyrazolo[1,5-a][1,4]diazepine-2-carboxamide] | 100 to 500 nM |  |
| CCC(O)C1CN(C)C(=O)c2c3c(nn2C1)CCN(C(=O)Nc1ccc(F)c(Br)c1F)C3 (single isomer, unassigned) [Compound 101_E1, (R*)—N-(3-bromo-2,4-difluorophenyl)-8-((S*)-1-hydroxypropyl)-10-methyl-11-oxo-1,3,4,7,8,9,10,11-octahydro-2H-pyrido[4′,3′:3,4]pyrazolo[1,5-a][1,4]diazepine-2-carboxamide] | 1 to 100 nM |  |
| CN1CC(CNCC(F)F)Cn2nc3c(c2C1=O)CN(C(=O)Nc1ccc(F)c(C#N)c1)CC3 (single isomer, unassigned) [Compound 118_E2, (S*)—N-(3-cyano-4-fluorophenyl)-8-(((2,2-difluoroethyl)amino)methyl)-10-methyl-11-oxo-1,3,4,7,8,9,10,11-octahydro-2H-pyrido[4′,3′:3,4]pyrazolo[1,5-a][1,4]diazepine-2-carboxamide] | 1 to 100 nM |  |
